According to patent US10253027B2, “Aryl lactam kinase inhibitors” (Bristol-Myers Squibb Company, priority 2013, dated 2019):

Key:
GST-Xa-hAAK1 = molecular target: T1, GST-Xa-hAAK1 (Homo sapiens, UniProt Q2M2I8); assay: AAK1 Kinase Assay; type: biochemical; conditions: IC50 (nM), ATP 22 μM; 3 hours at room temperature; Caliper LabChip 3000
T1 construct: made in house
How it was run: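 Bacterially expressed GST-Xa-hAAK1 was combined with substrates and compounds (eleven concentrations) and incubated 3 h at room temperature, then stopped with EDTA. Fluorescent substrate and phosphorylated product were separated electrophoretically (Caliper LabChip), and IC50 values came from non-linear regression.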

mice = assay: formalin paw test (paw flinching, pain response); type: in vivo, mouse
Experimental: AAK1 homozygous (−/−) and their wild-type (+/+) littermates were tested using the formalin paw test in order to assess their acute and tonic nociceptive responses. For these tests, Automatic Nociception Analyzers (purchased from the Ozaki lab at University of California, San Diego) were used. A metal band was placed around the left hind paw of each mouse 30 minutes prior to testing. After the 30-minute acclimation period, 20 μl of 5% formalin is subcutaneously injected in the dorsal surface of the left hind paw. Mice were individually housed in cylindrical chambers for 45 minutes. Fresh 5% formalin solution was prepared by diluting formaldehyde (Formalde-fresh 20%, Fisher Scientific, Fair Lawn, N.J.) with distilled water. Investigatory compounds were administered 30 minutes prior to formalin injection.
A computer recorded flinches per minute, total flinches for phase I (acute phase=first 8 minutes), and total flinches for phase II (tonic phase=time between minutes 20-40) through an electromagnetic field. See Yaksh T L, Ozaki G, McCumber D, Rathbun M, Svensson C, Malkmus S, Yaksh M C. An automated flinch detecting system for use in the formalin nociceptive bioassay. J Appl Physiol., 2001; 90:2386-402. Phase 1 and phase 2 data were obtained using homozygous (−/−) mice females (n=16), wild-type females (n=15), homozygous (−/−) mice males (n=9), and wild-type males (n=18).
The same test was used to confirm that the administration of an AAK1 inhibitor can also affect pain response.
A compound of the disclosure was tested in this assay at different doses. Gabapentin and pregabalin were used as positive controls. Results are shown below in Table 3, wherein the effect of gabapentin at 200 mg/kg is considered a 100% response, the % response for the other compounds is relative to the 200 mg/kg dose of gabapentin, “sc” means subcutaneous administration; “po” means oral administration.

[1] = 60 mg/kg sc, % response relative to gabapentin 200 mg/kg (=100%), compound given 30 minutes prior to formalin
[2] = 50 mg/kg sc, % response relative to gabapentin 200 mg/kg (=100%), compound given 30 minutes prior to formalin

T1 sequence (Q2M2I8 whole entry): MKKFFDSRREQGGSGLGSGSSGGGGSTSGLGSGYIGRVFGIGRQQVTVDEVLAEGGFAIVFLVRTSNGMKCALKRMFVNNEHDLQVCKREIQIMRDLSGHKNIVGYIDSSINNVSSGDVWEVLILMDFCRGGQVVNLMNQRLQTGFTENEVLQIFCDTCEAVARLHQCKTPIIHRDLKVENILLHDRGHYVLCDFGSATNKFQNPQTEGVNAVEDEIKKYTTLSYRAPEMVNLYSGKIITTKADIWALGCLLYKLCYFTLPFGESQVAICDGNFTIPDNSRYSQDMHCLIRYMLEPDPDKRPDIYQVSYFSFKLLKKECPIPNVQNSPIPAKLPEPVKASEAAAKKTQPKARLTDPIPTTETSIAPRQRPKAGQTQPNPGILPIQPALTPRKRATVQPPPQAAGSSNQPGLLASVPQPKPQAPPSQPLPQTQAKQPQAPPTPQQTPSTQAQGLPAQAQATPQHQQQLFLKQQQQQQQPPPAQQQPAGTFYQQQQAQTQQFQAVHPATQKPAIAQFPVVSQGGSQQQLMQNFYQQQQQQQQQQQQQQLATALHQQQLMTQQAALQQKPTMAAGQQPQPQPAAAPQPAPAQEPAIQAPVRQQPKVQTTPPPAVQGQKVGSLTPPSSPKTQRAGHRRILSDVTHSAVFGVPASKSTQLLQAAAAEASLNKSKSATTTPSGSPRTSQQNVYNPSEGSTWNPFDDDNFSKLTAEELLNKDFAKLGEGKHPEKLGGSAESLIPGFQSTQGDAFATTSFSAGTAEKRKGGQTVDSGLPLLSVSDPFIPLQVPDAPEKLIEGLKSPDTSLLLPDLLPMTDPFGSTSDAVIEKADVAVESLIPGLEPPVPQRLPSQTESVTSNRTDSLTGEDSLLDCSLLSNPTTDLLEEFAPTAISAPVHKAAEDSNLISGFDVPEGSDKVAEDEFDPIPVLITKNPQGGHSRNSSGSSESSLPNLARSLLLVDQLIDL

COc1cc(NC(=O)[C@H](N)CC(C)C)ccc1-c1cnco1 [Example 1, (R)-2-Amino-N-(3-methoxy-4-(oxazol-5-yl)phenyl)-4-methylpentanamide]
IC50 (GST-Xa-hAAK1): 36 nM | Response (mice; [1]): 90%

CC(C)C[C@@H](N)C(=O)Nc1ccc(-c2cnco2)c(OC(F)F)c1 [Example 18, (R)-2-Amino-N-(3-(difluoromethoxy)-4-(oxazol-5-yl)phenyl)-4-methylpentanamide]
IC50 (GST-Xa-hAAK1): 35 nM | Response (mice; [1]): 100%

NCC1(CC(=O)O)CCCCC1 [Gabapentin]
Response (mice; [2]): 60% | Response (mice; 200 mg/kg sc, gabapentin at 200 mg/kg is considered a 100% response): 100%

CC(C)C[C@H](CN)CC(=O)O [Pregabalin, pregabalin]
Response (mice; [2]): 90%
